The text below walks through data of article PMC10331597 (Redox Biology, 2023).

pKd: −log10 of the molar value.

In the assay the target is Keap1 (Homo sapiens, UniProt Q14145). Description: Fluorescence anisotropy assay. Type of assay: binding. As to conditions: for pKd: Keap1-Nrf2 binding affinity, fluorescence anisotropy assay, duplicated experiment, average; for activity in Keap1-Nrf2 fluorescence anisotropy assay: at 10 μM.
Keap1, sequence (Q14145 whole entry): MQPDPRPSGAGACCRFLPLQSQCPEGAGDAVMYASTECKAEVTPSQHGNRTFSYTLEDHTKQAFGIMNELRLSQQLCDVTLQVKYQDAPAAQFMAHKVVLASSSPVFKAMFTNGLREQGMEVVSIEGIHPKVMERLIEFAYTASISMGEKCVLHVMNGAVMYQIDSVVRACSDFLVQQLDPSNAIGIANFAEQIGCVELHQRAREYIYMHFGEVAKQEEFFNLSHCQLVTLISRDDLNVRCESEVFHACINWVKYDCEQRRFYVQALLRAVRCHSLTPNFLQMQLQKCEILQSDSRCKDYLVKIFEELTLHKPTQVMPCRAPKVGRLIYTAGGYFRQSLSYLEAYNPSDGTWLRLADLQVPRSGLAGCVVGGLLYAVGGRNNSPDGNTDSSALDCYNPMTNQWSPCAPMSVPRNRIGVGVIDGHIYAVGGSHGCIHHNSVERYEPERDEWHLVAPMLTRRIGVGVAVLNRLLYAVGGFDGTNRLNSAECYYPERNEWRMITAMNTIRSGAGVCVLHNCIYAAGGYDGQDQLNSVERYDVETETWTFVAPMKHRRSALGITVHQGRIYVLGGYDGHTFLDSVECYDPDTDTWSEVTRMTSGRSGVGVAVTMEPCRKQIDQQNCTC

Take `COc1ccc(S(=O)(=O)N(CC(N)=O)c2ccc(N(CC(N)=O)S(=O)(=O)c3cn(C)cn3)c3ccccc23)cc1` [Compound A8, 2-((N-(4-((N-(2-amino-2-oxoethyl)-1-methyl-1H-imidazole)-4-sulfonamido)naphthalen-1-yl)-4-methoxyphenyl)sulfonamido)acetamide]: the pKd is 5.94.

For `COc1ccc(S(=O)(=O)N(CC(N)=O)c2ccc(N(CC(N)=O)S(=O)(=O)N3CCOCC3)c3ccccc23)cc1` [Compound A6, 2-(N-(4-((N-(2-amino-2-oxoethyl)-4-methoxyphenyl)sulfonamido)naphthalen-1-yl)morpholine-4-sulfonamido)acetamide], the pKd was 5.68. `COc1ccc(S(=O)(=O)N(CC(N)=O)c2ccc(N(CC(N)=O)S(=O)(=O)c3cccc4ccccc34)c3ccccc23)cc1` [Compound A1, 2-(N-(4-((N-(2-amino-2-oxoethyl)-4-methoxyphenyl)sulfonamido)naphthalen-1-yl)naphthalene-1-sulfonamido)acetamide]: the pKd was under 5.00 and the “activity in Keap1-Nrf2 fluorescence anisotropy assay” value (shortened to “activity”) was “did not show apparent activity”.

As to `COc1ccc(S(=O)(=O)N(CC(N)=O)c2ccc(N(CC(N)=O)S(=O)(=O)c3sc4ccc(Cl)cc4c3C)c3ccccc23)cc1` [Compound A13, 2-((N-(4-((N-(2-amino-2-oxoethyl)-4-methoxyphenyl)sulfonamido)naphthalen-1-yl)-5-chloro-3-methylbenzo[b]thiophene)-2-sulfonamido)acetamide], the pKd was under 5.00 and the “activity” value is given as “did not show apparent activity”. For `COc1ccc(S(=O)(=O)N(CC(N)=O)c2ccc(N(CC(N)=O)S(=O)(=O)c3ccc(-c4ccccc4)cc3)c3ccccc23)cc1` [Compound A3, 2-(N-(4-((N-(2-amino-2-oxoethyl)-4-methoxyphenyl)sulfonamido)naphthalen-1-yl)-[1,1'-biphenyl]-4-sulfonamido)acetamide], the pKd was under 5.00 and the “activity” value was “did not show apparent activity”. Regarding `COc1ccc(S(=O)(=O)N(CC(N)=O)c2ccc(N(CC(N)=O)S(=O)(=O)c3ccc4c(c3)CCO4)c3ccccc23)cc1` [Compound A11, 2-((N-(4-((N-(2-amino-2-oxoethyl)-2,3-dihydrobenzofuran)-5-sulfonamido)naphthalen-1-yl)-4-methoxyphenyl)sulfonamido)acetamide], the pKd was 5.89. With `COc1ccc(S(=O)(=O)N(CC(N)=O)c2ccc(N(CC(N)=O)S(=O)(=O)c3ccc4ccccc4c3)c3ccccc23)cc1` [Compound A2, 2-(N-(4-((N-(2-amino-2-oxoethyl)-4-methoxyphenyl)sulfonamido)naphthalen-1-yl)naphthalene-2-sulfonamido)acetamide], the pKd was 5.88. With `COc1ccc(S(=O)(=O)N(CC(N)=O)c2ccc(N(CC(N)=O)S(=O)(=O)c3c(C)noc3C)c3ccccc23)cc1` [Compound A12, 2-((N-(4-((N-(2-amino-2-oxoethyl)-3,5-dimethylisoxazole)-4-sulfonamido)naphthalen-1-yl)-4-methoxyphenyl)sulfonamido)acetamide], the pKd was under 5.00 and the “activity” value was “did not show apparent activity”. `COc1ccc(S(=O)(=O)N(CC(N)=O)c2ccc(N(CC(N)=O)S(=O)(=O)c3cnn(C)c3)c3ccccc23)cc1` [Compound A9, 2-((N-(4-((N-(2-amino-2-oxoethyl)-1-methyl-1H-pyrazole)-4-sulfonamido)naphthalen-1-yl)-4-methoxyphenyl)sulfonamido)acetamide] showed a pKd of 5.94. On the same count and under the same terms, the value for `COc1ccc(S(=O)(=O)N(CC(N)=O)c2ccc(N(CC(N)=O)S(=O)(=O)c3c(C)c(C)c4c(c3C)CC(C)(C)O4)c3ccccc23)cc1` [Compound A10, 2-((N-(4-((N-(2-amino-2-oxoethyl)-2,2,4,6,7-pentamethyl-2,3-dihydrobenzofuran)-5-sulfonamido)naphthalen-1-yl)-4-methoxyphenyl)sulfonamido)acetamide] was 5.49. As to `COc1ccc(S(=O)(=O)N(CC(N)=O)c2ccc(N(CC(N)=O)S(=O)(=O)c3ccc(Cl)nc3)c3ccccc23)cc1` [Compound A5, 2-((N-(4-((N-(2-amino-2-oxoethyl)-4-methoxyphenyl)sulfonamido)naphthalen-1-yl)-6-chloropyridine)-3-sulfonamido)acetamide], the negative logarithm of the Kd (pKd) is under 5.00 and the “activity” value is on record as “did not show apparent activity”. On to `COc1ccc(S(=O)(=O)N(CC(N)=O)c2ccc(N(CC(N)=O)S(=O)(=O)c3sc(N(CC(N)=O)C(C)=O)nc3C)c3ccccc23)cc1` [Compound A7, N-(2-amino-2-oxoethyl)-N-(5-(N-(2-amino-2-oxoethyl)-N-(4-((N-(2-amino-2-oxoethyl)-4-methoxy-phenyl)sulfonamido)naphthalen-1-yl)sulfamoyl)-4-methylthiazol-2-yl)acetamide], for which the pKd was 5.84.

The compound `COc1ccc(S(=O)(=O)N(CC(N)=O)c2ccc(N(CC(N)=O)S(=O)(=O)c3cccs3)c3ccccc23)cc1` [Compound A4, 2-(N-(4-((N-(2-amino-2-oxoethyl)-4-methoxyphenyl)sulfonamido)naphthalen-1-yl)thiophene-2-sulfonamido)acetamide] showed a pKd of 5.96.
